Results published in the supplement of paper PMC6335503.
± gives the standard deviation of the averaged measurements.

How the values were obtained:
Test in all cases: cell viability, percent of DMSO control (CellTiter-Glo); higher = more viable cells
Conditions in all cases: 72 h
[1] = tested on: DFTD cell line T1 (06/2887)
Description: (§1)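 Eight-point dose titration of 41 screen hits in triplicate wells on four Tasmanian devil DFTD tumour cell lines (T1-T4) and devil fibroblasts, 384-well plates. Viability was read by CellTiter-Glo (ATP) after 72 h at 37 °C. Percent of control per plate: DMSO wells = 100%, positive-control wells = 0%.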

[2] = tested on: DFTD cell line T2 (05/2569)
Description: as §1

[3] = tested on: DFTD cell line T3 (06/0368)
Description: as §1

[4] = tested on: DFTD cell line T4 (07/0192)
Description: as §1

Q: Which cell viability ([1]; 0.00617 µM) does the source give for `CS(=O)(=O)CCNCc1ccc(-c2ccc3ncnc(Nc4ccc(OCc5cccc(F)c5)c(Cl)c4)c3c2)o1.Cc1ccc(S(=O)(=O)O)cc1` here?
A: 127 ± 30%

Q: What about the cell viability ([1]; 0.0185 µM) of the same molecule?
A: 119 ± 34%

Q: And the cell viability ([1]; 0.0556 µM)?
A: 87.5 ± 10%

Q: What about the cell viability ([1]; 0.166667 µM) of the same molecule?
A: 102 ± 13%

Q: What about the cell viability ([1]; 0.5 µM) of the same molecule?
A: 46.3 ± 14%

Q: And the cell viability ([1]; 1.5 µM)?
A: 28.1 ± 1.4%

Q: What about the cell viability ([1]; 4.5 µM) of the same molecule?
A: 24 ± 4.6%

Q: What about the cell viability ([1]; 13.5 µM) of the same molecule?
A: 31.8 ± 14%

Q: And the cell viability ([2]; 0.00617 µM)?
A: 109 ± 37%

Q: What about the cell viability ([2]; 0.0185 µM) of the same molecule?
A: 114 ± 20%

Q: What about the cell viability ([2]; 0.0556 µM) of the same molecule?
A: 98.2 ± 27%

Q: And the cell viability ([2]; 0.166667 µM)?
A: 117 ± 23%

Q: And the cell viability ([2]; 0.5 µM)?
A: 83.3 ± 12%

Q: And the cell viability ([2]; 1.5 µM)?
A: 44.3 ± 7.7%

Q: What about the cell viability ([2]; 4.5 µM) of the same molecule?
A: 35.8 ± 6.4%

Q: What about the cell viability ([2]; 13.5 µM) of the same molecule?
A: 32.3 ± 14%

Q: What about the cell viability ([3]; 0.00617 µM) of the same molecule?
A: 96 ± 14%

Q: What about the cell viability ([3]; 0.0185 µM) of the same molecule?
A: 105 ± 4.2%

Q: And the cell viability ([3]; 0.0556 µM)?
A: 99.2 ± 22%

Q: What about the cell viability ([3]; 0.166667 µM) of the same molecule?
A: 97.4 ± 13%

Q: What about the cell viability ([3]; 0.5 µM) of the same molecule?
A: 63 ± 14%

Q: What about the cell viability ([3]; 1.5 µM) of the same molecule?
A: 54.1 ± 6%

Q: What about the cell viability ([3]; 4.5 µM) of the same molecule?
A: 42.2 ± 2.4%

Q: What about the cell viability ([3]; 13.5 µM) of the same molecule?
A: 40.8 ± 22%

Q: What about the cell viability ([4]; 0.00617 µM) of the same molecule?
A: 102 ± 3.8%

Q: What about the cell viability ([4]; 0.0185 µM) of the same molecule?
A: 123 ± 22%

Q: And the cell viability ([4]; 0.0556 µM)?
A: 101 ± 20%

Q: And the cell viability ([4]; 0.166667 µM)?
A: 91.8 ± 9.4%

Q: What about the cell viability ([4]; 0.5 µM) of the same molecule?
A: 62.7 ± 8.4%

Q: And the cell viability ([4]; 1.5 µM)?
A: 46.1 ± 8%

Q: What about the cell viability ([4]; 4.5 µM) of the same molecule?
A: 22.1 ± 4.5%

Q: What about the cell viability ([4]; 13.5 µM) of the same molecule?
A: 28.7 ± 14%

Q: Which results are given for `CN(C)C/C=C/C(=O)Nc1cc2c(Nc3ccc(F)c(Cl)c3)ncnc2cc1O[C@H]1CCOC1` [Afatinib (BIBW2992)]?
A: cell viability ([1]; 0.00617 µM): 102 ± 29%; cell viability ([1]; 0.0185 µM): 58.8 ± 21%; cell viability ([1]; 0.0556 µM): 29 ± 8.1%; cell viability ([1]; 0.166667 µM): 19 ± 9.1%; cell viability ([1]; 0.5 µM): 24.5 ± 11%; cell viability ([1]; 1.5 µM): 18.8 ± 6.4%; cell viability ([1]; 4.5 µM): 4.12 ± 9.6%; cell viability ([1]; 13.5 µM): 1.43 ± 4.3%; cell viability ([2]; 0.00617 µM): 112 ± 52%; cell viability ([2]; 0.0185 µM): 89.2 ± 12%; cell viability ([2]; 0.0556 µM): 72.7 ± 34%; cell viability ([2]; 0.166667 µM): 39.8 ± 9.6%; cell viability ([2]; 0.5 µM): 43.4 ± 10%; cell viability ([2]; 1.5 µM): 33.4 ± 9.4%; cell viability ([2]; 4.5 µM): 30.8 ± 14%; cell viability ([2]; 13.5 µM): 5.92 ± 3%; cell viability ([3]; 0.00617 µM): 105 ± 17%; cell viability ([3]; 0.0185 µM): 84.4 ± 20%; cell viability ([3]; 0.0556 µM): 50.4 ± 19%; cell viability ([3]; 0.166667 µM): 34 ± 9%; cell viability ([3]; 0.5 µM): 31.7 ± 6.7%; cell viability ([3]; 1.5 µM): 31.5 ± 8.3%; cell viability ([3]; 4.5 µM): 24 ± 13%; cell viability ([3]; 13.5 µM): 6.87 ± 10%; cell viability ([4]; 0.00617 µM): 98.9 ± 23%; cell viability ([4]; 0.0185 µM): 81.1 ± 19%; cell viability ([4]; 0.0556 µM): 46.3 ± 12%; cell viability ([4]; 0.166667 µM): 18.2 ± 3.3%; cell viability ([4]; 0.5 µM): 13.9 ± 3.7%; cell viability ([4]; 1.5 µM): 18.8 ± 11%; cell viability ([4]; 4.5 µM): 5.93 ± 8.1%; cell viability ([4]; 13.5 µM): 1.47 ± 8.6%

Q: `COc1cc2ncnc(Nc3cccc(Cl)c3F)c2cc1OC(=O)N1CCN(C)C[C@H]1C` [AZD3759] was tested. Which cell viability ([1]; 0.00617 µM) did it give?
A: 96.9 ± 29%

Q: And the cell viability ([1]; 0.0185 µM)?
A: 110 ± 19%

Q: What about the cell viability ([1]; 0.0556 µM) of the same molecule?
A: 113 ± 33%

Q: And the cell viability ([1]; 0.166667 µM)?
A: 95.3 ± 21%

Q: And the cell viability ([1]; 0.5 µM)?
A: 59.1 ± 10%

Q: And the cell viability ([1]; 1.5 µM)?
A: 38.1 ± 7.5%

Q: What about the cell viability ([1]; 4.5 µM) of the same molecule?
A: 22.6 ± 2.7%

Q: And the cell viability ([1]; 13.5 µM)?
A: 31.5 ± 6.1%

Q: What about the cell viability ([2]; 0.00617 µM) of the same molecule?
A: 97.6 ± 42%

Q: What about the cell viability ([2]; 0.0185 µM) of the same molecule?
A: 107 ± 12%

Q: And the cell viability ([2]; 0.0556 µM)?
A: 131 ± 45%

Q: And the cell viability ([2]; 0.166667 µM)?
A: 121 ± 35%

Q: What about the cell viability ([2]; 0.5 µM) of the same molecule?
A: 81.8 ± 18%

Q: And the cell viability ([2]; 1.5 µM)?
A: 48.9 ± 4.4%

Q: And the cell viability ([2]; 4.5 µM)?
A: 22.9 ± 7.3%

Q: And the cell viability ([2]; 13.5 µM)?
A: 32 ± 4.3%

Q: What about the cell viability ([3]; 0.00617 µM) of the same molecule?
A: 96.2 ± 18%

Q: And the cell viability ([3]; 0.0185 µM)?
A: 89.5 ± 4.7%

Q: What about the cell viability ([3]; 0.0556 µM) of the same molecule?
A: 122 ± 15%

Q: And the cell viability ([3]; 0.166667 µM)?
A: 107 ± 34%

Q: And the cell viability ([3]; 0.5 µM)?
A: 76.4 ± 20%

Q: And the cell viability ([3]; 1.5 µM)?
A: 52.8 ± 6.2%

Q: And the cell viability ([3]; 4.5 µM)?
A: 37.7 ± 7%

Q: And the cell viability ([3]; 13.5 µM)?
A: 41.7 ± 7.3%

Q: What about the cell viability ([4]; 0.00617 µM) of the same molecule?
A: 102 ± 12%

Q: What about the cell viability ([4]; 0.0185 µM) of the same molecule?
A: 96.5 ± 23%

Q: And the cell viability ([4]; 0.0556 µM)?
A: 111 ± 24%

Q: And the cell viability ([4]; 0.166667 µM)?
A: 109 ± 10%

Q: And the cell viability ([4]; 0.5 µM)?
A: 78.4 ± 14%

Q: And the cell viability ([4]; 1.5 µM)?
A: 55 ± 5.2%

Q: What about the cell viability ([4]; 4.5 µM) of the same molecule?
A: 28.7 ± 6.5%

Q: What about the cell viability ([4]; 13.5 µM) of the same molecule?
A: 25 ± 3.8%

Q: For `Cn1nc(-c2ccccn2)nc2c(=O)n(C)c(=O)nc1-2`, which cell viability ([1]; 0.00617 µM) is on record?
A: 153 ± 34%

Q: And the cell viability ([1]; 0.0185 µM)?
A: 70.2 ± 59%

Q: And the cell viability ([1]; 0.0556 µM)?
A: 125 ± 22%

Q: What about the cell viability ([1]; 0.166667 µM) of the same molecule?
A: 132 ± 5%

Q: And the cell viability ([1]; 0.5 µM)?
A: 135 ± 44%

Q: What about the cell viability ([1]; 1.5 µM) of the same molecule?
A: 81.7 ± 2.8%

Q: And the cell viability ([1]; 4.5 µM)?
A: -6.25 ± 9.7%

Q: And the cell viability ([1]; 13.5 µM)?
A: 0.0591 ± 4.2%

Q: What about the cell viability ([2]; 0.00617 µM) of the same molecule?
A: 135 ± 19%

Q: What about the cell viability ([2]; 0.0185 µM) of the same molecule?
A: 102 ± 31%

Q: What about the cell viability ([2]; 0.0556 µM) of the same molecule?
A: 104 ± 19%

Q: What about the cell viability ([2]; 0.166667 µM) of the same molecule?
A: 124 ± 18%

Q: And the cell viability ([2]; 0.5 µM)?
A: 132 ± 42%

Q: And the cell viability ([2]; 1.5 µM)?
A: 84.5 ± 6.9%

Q: What about the cell viability ([2]; 4.5 µM) of the same molecule?
A: -4.38 ± 1.7%

Q: What about the cell viability ([2]; 13.5 µM) of the same molecule?
A: -0.281 ± 3.3%

Q: And the cell viability ([3]; 0.00617 µM)?
A: 117 ± 31%

Q: And the cell viability ([3]; 0.0185 µM)?
A: 94.9 ± 27%

Q: And the cell viability ([3]; 0.0556 µM)?
A: 119 ± 9.9%

Q: What about the cell viability ([3]; 0.166667 µM) of the same molecule?
A: 126 ± 16%

Q: What about the cell viability ([3]; 0.5 µM) of the same molecule?
A: 107 ± 26%

Q: What about the cell viability ([3]; 1.5 µM) of the same molecule?
A: 72.9 ± 4.2%

Q: What about the cell viability ([3]; 4.5 µM) of the same molecule?
A: -7.67 ± 4%

Q: And the cell viability ([3]; 13.5 µM)?
A: -1.39 ± 4.7%

Q: And the cell viability ([4]; 0.00617 µM)?
A: 141 ± 24%

Q: What about the cell viability ([4]; 0.0185 µM) of the same molecule?
A: 92.9 ± 34%

Q: What about the cell viability ([4]; 0.0556 µM) of the same molecule?
A: 114 ± 12%

Q: And the cell viability ([4]; 0.166667 µM)?
A: 109 ± 11%

Q: What about the cell viability ([4]; 0.5 µM) of the same molecule?
A: 118 ± 31%

Q: What about the cell viability ([4]; 1.5 µM) of the same molecule?
A: 74.2 ± 14%

Q: What about the cell viability ([4]; 4.5 µM) of the same molecule?
A: -7.19 ± 8.8%

Q: And the cell viability ([4]; 13.5 µM)?
A: 0.999 ± 4.1%
